Experimental data reported in ChEMBL document CHEMBL5505983, “Design, synthesis, and molecular modeling studies of novel 2-quinolone-1,2,3-triazole-α-aminophosphonates hybrids as dual antiviral and antibacterial agents” (Eur J Med Chem, 2024).
≈ marks a conversion by molar mass, not a printed value.

Key:
Chikungunya virus = experiment: Antiviral activity against CHIKV infected in African green monkey Vero A cells assessed as inhibition of cytopathic effect by microscopy based analysis; format: functional, organism-based
Enterococcus faecalis [1] = experiment: Antibacterial activity against Enterococcus faecalis assessed as reduction in bacterial growth by micro-broth dilution method; format: functional
Human rhinovirus sp. [2] = experiment: Antiviral activity against Human rhinovirus B14 infected in human HeLa-RH cells assessed as inhibition of cytopathic effect by microscopy based analysis; format: functional, organism-based
[3] = Selectivity index, ratio of CC50 for human RD cells to IC50 for human EV71 infected in human RD cells; format: toxicity, cell-based; conditions: read-out: Ratio CC50/IC50
Staphylococcus aureus [4] = experiment: Ratio of MBC to MIC for Staphylococcus aureus CIP 54127; format: functional
[5] = Cytotoxicity against African green monkey Vero A cells; format: toxicity, cell-based; conditions: chlorocebus sabaeus
[6] = Cytotoxicity against human RD cells; format: toxicity, cell-based
Enterococcus faecalis [7] = experiment: Ratio of MBC to MIC for Enterococcus faecalis; format: functional
Pseudomonas aeruginosa [8] = experiment: Bactericidal activity against Pseudomonas aeruginosa CIP A22; format: functional
Escherichia coli [9] = experiment: Bactericidal activity against Escherichia coli CIP 53154; format: functional
[10] = Cytotoxicity against human HeLa-RH cells; format: toxicity, cell-based
Enterovirus A71 = experiment: Antiviral activity against human EV71 infected in human RD cells assessed as inhibition of cytopathic effect by microscopy based analysis; format: functional, organism-based; conditions: Enterovirus A
Escherichia coli [11] = experiment: Ratio of MBC to MIC for Escherichia coli CIP 53154; format: functional
[12] = Cytotoxicity against human Huh-7 cells; format: toxicity, cell-based
Pseudomonas aeruginosa [13] = experiment: Ratio of MBC to MIC for Pseudomonas aeruginosa CIP A22; format: functional
Staphylococcus aureus [14] = experiment: Bactericidal activity against Staphylococcus aureus CIP 54127; format: functional
Yellow fever virus = experiment: Antiviral activity against Yellow fever virus infected in human Huh-7 cells assessed as inhibition of cytopathic effect by microscopy based analysis; format: functional, organism-based
Staphylococcus aureus [15] = experiment: Antibacterial activity against Staphylococcus aureus CIP 54127 assessed as reduction in bacterial growth by micro-broth dilution method; format: functional
Human rhinovirus sp. [16] = experiment: Antiviral activity against Human rhinovirus A2 infected in human HeLa-RH cells assessed as inhibition of cytopathic effect by microscopy based analysis; format: functional, organism-based
[17] = Cytotoxicity against African green monkey Vero E6 cells; format: toxicity, cell-based, Vero C1008; conditions: chlorocebus sabaeus
[18] = Selectivity index, ratio of CC50 for African green monkey Vero A cells to IC50 for CHIKV infected in African green monkey Vero A cells; format: toxicity; conditions: read-out: Ratio CC50/IC50
Enterococcus faecalis [19] = experiment: Bactericidal activity against Enterococcus faecalis; format: functional
Pseudomonas aeruginosa [20] = experiment: Antibacterial activity against Pseudomonas aeruginosa CIP A22 assessed as reduction in bacterial growth by micro-broth dilution method; format: functional
Escherichia coli [21] = experiment: Antibacterial activity against Escherichia coli CIP 53154 assessed as reduction in bacterial growth by micro-broth dilution method; format: functional
Zika virus = experiment: Antiviral activity against Zika virus infected in african green monkey Vero E6 cells assessed as inhibition of cytopathic effect by microscopy based analysis; format: functional, organism-based; conditions: Vero C1008
[22] = Selectivity index, ratio of CC50 for human HeLa-RH cells to IC50 for Human rhinovirus A2 infected in human HeLa-RH cells; format: toxicity, cell-based; conditions: read-out: Ratio CC50/IC50
[23] = Selectivity index, ratio of CC50 for human HeLa-RH cells to IC50 for Human rhinovirus B14 infected in human HeLa-RH cells; format: toxicity, cell-based; conditions: read-out: Ratio CC50/IC50
[24] = Selectivity index, ratio of CC50 for human Huh-7 cells to IC50 for Yellow fever virus infected in human Huh-7 cells; format: toxicity, cell-based; conditions: read-out: Ratio CC50/IC50
[25] = Selectivity index, ratio of CC50 for African green monkey Vero E6 cells to IC50 for Zika virus infected in african green monkey Vero E6 cells; format: toxicity; conditions: read-out: Ratio CC50/IC50
Pseudomonas aeruginosa [26] = experiment: Antibacterial activity against Pseudomonas aeruginosa; format: functional
Staphylococcus aureus [27] = experiment: Antibacterial activity against Staphylococcus aureus; format: functional

Row | Compound | IC50 (Chikungunya virus) [µM] | MIC (Enterococcus faecalis [1]) [µM] | IC50 (Human rhinovirus sp. [2]) [µM] | Ratio (Staphylococcus aureus [4]) | CC50 [5] [µM] | CC50 [6] [µM] | Ratio (Enterococcus faecalis [7]) | MBC (Pseudomonas aeruginosa [8]) [µM] | MBC (Escherichia coli [9]) [µM] | CC50 [10] [µM] | IC50 (Enterovirus A71) [µM] | Ratio (Escherichia coli [11]) | CC50 [12] [µM] | Ratio (Pseudomonas aeruginosa [13]) | MBC (Staphylococcus aureus [14]) [µM] | IC50 (Yellow fever virus) [µM] | MIC (Staphylococcus aureus [15]) [µM] | IC50 (Human rhinovirus sp. [16]) [µM] | CC50 [17] [µM] | IC50 (Zika virus) [µM] | other results
1 | Cc1cc(=O)n(Cc2cn(Cc3ccc(O)c(C=O)c3)nn2)c2ccc(Br)cc12 | 98.5 | 340 (≈ 154 µg/mL) | > 100 | 1 | > 100 | 44.1 | 1 | 2760 (≈ 1250 µg/mL) | 11000 (≈ 5000 µg/mL) | 8.61 | 33.3 | 2 | 29.6 | 1 | 11000 (≈ 5000 µg/mL) | > 100 | 11000 (≈ 5000 µg/mL) | > 1.23 | 52.7 | > 100 | selectivity ratio [3]: 1.33; selectivity ratio [18]: > 1.02; MBC (Enterococcus faecalis [19]): 340 µM (≈ 154 µg/mL); MIC (Pseudomonas aeruginosa [20]): 2760 µM (≈ 1250 µg/mL); MIC (Escherichia coli [21]): 5520 µM (≈ 2500 µg/mL)
2 | Cc1cc(CCCOc2c(C)cc(-c3noc(C(F)(F)F)n3)cc2C)on1 [PLECONARIL] | – | – | 0.2 | – | – | – | – | – | – | > 100 | – | – | – | – | – | – | – | 0.44 | – | – | selectivity ratio [22]: > 227; selectivity ratio [23]: > 500
3 | CCOC(=O)/C=C/[C@H](C[C@@H]1CCNC1=O)NC(=O)[C@@H](CC(=O)[C@@H](NC(=O)c1cc(C)on1)C(C)C)Cc1ccc(F)cc1 [RUPINTRIVIR] | – | – | – | – | – | > 100 | – | – | – | – | 1.87 | – | – | – | – | – | – | – | – | – | selectivity ratio [3]: > 53.5
4 | CCOP(=O)(OCC)C(Nc1ccccc1Cl)c1cc(Cn2cc(Cn3c(=O)cc(C)c4cc(Br)ccc43)nn2)ccc1O (stereo not given) | > 100 | 60 (≈ 42.1 µg/mL) | > 33.3 | 1 | 7.58 | > 100 | 1 | 1780 (≈ 1250 µg/mL) | 440 (≈ 308 µg/mL) | 9.88 | > 100 | 1 | 20 | 4.05 | 440 (≈ 308 µg/mL) | 9.91 | 440 (≈ 308 µg/mL) | > 0.41 | > 100 | 71.5 | selectivity ratio [24]: 2.02; MBC (Enterococcus faecalis [19]): 60 µM (≈ 42.1 µg/mL); MIC (Pseudomonas aeruginosa [20]): 1780 µM (≈ 1250 µg/mL); MIC (Escherichia coli [21]): 440 µM (≈ 308 µg/mL); selectivity ratio [25]: > 1.4
5 | CCOP(=O)(OCC)C(Nc1ccc(C)cc1)c1cc(Cn2cc(Cn3c(=O)cc(C)c4cc(Br)ccc43)nn2)ccc1O (stereo not given) | 56.1 | 60 (≈ 40.8 µg/mL) | 10.7 | 1 | > 100 | > 100 | 1 | 1840 (≈ 1250 µg/mL) | 930 (≈ 633 µg/mL) | 29.1 | > 100 | 2.02 | 20 | 4 | 460 (≈ 313 µg/mL) | > 100 | 460 (≈ 313 µg/mL) | > 0.41 | > 33.3 | > 100 | selectivity ratio [23]: 2.73; selectivity ratio [18]: > 1.78; MBC (Enterococcus faecalis [19]): 60 µM (≈ 40.8 µg/mL); MIC (Pseudomonas aeruginosa [20]): 1840 µM (≈ 1250 µg/mL); MIC (Escherichia coli [21]): 460 µM (≈ 313 µg/mL)
6 | C[C@@]1(O)[C@H](O)[C@@H](CO)O[C@H]1n1ccc2c(N)ncnc21 [BETA-2'-C-METHYL-7-DEAZA-ADENOSINE] | – | – | – | – | – | – | – | – | – | – | – | – | 50 | – | – | 16.3 | – | – | > 100 | 20 | selectivity ratio [24]: 3.07; selectivity ratio [25]: > 5
7 | CCOP(=O)(OCC)C(Nc1ccccc1)c1cc(Cn2cc(Cn3c(=O)cc(C)c4cc(Br)ccc43)nn2)ccc1O (stereo not given) | 40 | 60 (≈ 40 µg/mL) | 41.1 | 1 | > 100 | > 100 | 2 | 3750 (≈ 2500 µg/mL) | 1880 (≈ 1250 µg/mL) | > 100 | > 100 | 1.98 | 52 | 1.99 | 240 (≈ 160 µg/mL) | > 100 | 240 (≈ 160 µg/mL) | > 1.23 | > 100 | > 100 | selectivity ratio [23]: > 2.43; selectivity ratio [18]: > 2.5; MBC (Enterococcus faecalis [19]): 120 µM (≈ 80 µg/mL); MIC (Pseudomonas aeruginosa [20]): 3750 µM (≈ 2500 µg/mL); MIC (Escherichia coli [21]): 950 µM (≈ 633 µg/mL)
8 | CCOP(=O)(OCC)C(Nc1ccc(I)cc1)c1cc(Cn2cc(Cn3c(=O)cc(C)c4cc(F)ccc43)nn2)ccc1O (stereo not given) | 33 | 50 (≈ 36.6 µg/mL) | 10.9 | 2 | > 100 | > 100 | 1 | 1710 (≈ 1250 µg/mL) | 1710 (≈ 1250 µg/mL) | > 33.3 | > 100 | 1.99 | 12.1 | 1 | 220 (≈ 161 µg/mL) | > 33.3 | 110 (≈ 80.5 µg/mL) | > 33.3 | > 100 | > 100 | selectivity ratio [23]: > 3.06; selectivity ratio [18]: > 3.03; MBC (Enterococcus faecalis [19]): 50 µM (≈ 36.6 µg/mL); MIC (Pseudomonas aeruginosa [20]): 1710 µM (≈ 1250 µg/mL); MIC (Escherichia coli [21]): 860 µM (≈ 629 µg/mL)
9 | CCOP(=O)(OCC)C(Nc1ccccc1Br)c1cc(Cn2cc(Cn3c(=O)cc(C)c4ccccc43)nn2)ccc1O (stereo not given) | 9.4 | 60 (≈ 40 µg/mL) | > 100 | 1 | 23.4 | 70.2 | 1 | 3750 (≈ 2500 µg/mL) | 470 (≈ 313 µg/mL) | 45.7 | > 100 | 1 | 30.1 | 1.99 | 120 (≈ 80 µg/mL) | 9.94 | 120 (≈ 80 µg/mL) | > 1.23 | > 100 | > 100 | selectivity ratio [24]: 3.03; selectivity ratio [18]: 2.49; MBC (Enterococcus faecalis [19]): 60 µM (≈ 40 µg/mL); MIC (Pseudomonas aeruginosa [20]): 3750 µM (≈ 2500 µg/mL); MIC (Escherichia coli [21]): 470 µM (≈ 313 µg/mL)
10 | COC(=O)C(NC(=O)c1ccccc1)n1cc(Cn2c(=O)cc(C(=O)N[C@H](C)C(=O)OC)c3ccccc32)nn1 (stereo not given in full) | – | – | – | – | – | – | – | – | – | – | – | – | – | – | – | – | – | – | – | – | MIC (Pseudomonas aeruginosa [26]): 78 mg/L (≈ 143 µM); MIC (Staphylococcus aureus [27]): 39 mg/L (≈ 71.4 µM)
11 | Cc1cc(=O)n(Cc2cn(Cc3ccc(O)c(C=O)c3)nn2)c2ccc(F)cc12 | > 100 | 200 (≈ 78.5 µg/mL) | > 100 | 1 | > 100 | 43 | 2 | 3190 (≈ 1250 µg/mL) | 6370 (≈ 2500 µg/mL) | 14.5 | 29.9 | 1 | 27.8 | 2.01 | 3190 (≈ 1250 µg/mL) | > 100 | 3190 (≈ 1250 µg/mL) | > 1.23 | 55 | > 100 | selectivity ratio [3]: 1.44; MBC (Enterococcus faecalis [19]): 400 µM (≈ 157 µg/mL); MIC (Pseudomonas aeruginosa [20]): 3190 µM (≈ 1250 µg/mL); MIC (Escherichia coli [21]): 6370 µM (≈ 2500 µg/mL)
